According to patent publication US20160192626A1, “Method For Creating Endometriotic Cells And Endometriosis Model Animal” (KYOTO UNIVERSITY, priority 2013, published 2016):

These compounds were tested on endometriotic-like cells (assay: Estrogen (E2) production ability of endometriotic-like cells from androgens of adrenal origin, Estradiol EIA). Conditions: final concentration 1 mM, 48 hours, cells produced in the step (3).
Type: cell-based, human
Procedure: In this Experimental Example, the cells produced in the step (3) were confirmed for their ability to produce estradiol (E2), which was an estrogen. The cells (1×10^5 cells) produced in the step (3) were added to 1 ml of a low-carbon-source proliferation culture medium supplemented with bovine serum albumin (BSA) at 0.1% (v/v) in place of FBS, inoculated into a 12-well plate having a surface coated with collagen type I (derived from rat tail, BD Biosciences, Cat. No. 354236), and cultured for 24 hours at 37° C. in the presence of 5% CO2.
After that, A-dione (Tokyo Chemical Industry Co., Ltd.; androstenedione), DHEA (Tokyo Chemical Industry Co., Ltd.), or DHEA-sulfate (Tokyo Chemical Industry Co., Ltd.; DHEA-S, inactivated adrenal androgen), which was an androgen of adrenal origin, was added to the culture medium so that the final concentration became 1 mM, and the cells were further cultured for 48 hours. As a control (vehicle), the cells were cultured in the same manner as described above except that dimethylsulfoxide (DMSO), which was a solvent, was added in place of the androgen.
The concentration of E2 in the culture supernatant was measured by using Estradiol EIA kit (Cayman Chemical, Cat. No. 582251) according to the manual of the kit.

Structure (SMILES) | E2 production from the added androgen (concentration of E2 in the culture supernatant)
C[C@]12CCC(=O)C=C1CC[C@@H]1[C@@H]2CC[C@]2(C)C(=O)CC[C@@H]12 [A-dione, androstenedione] | produced E2
C[C@]12CC[C@H](O)CC1=CC[C@@H]1[C@@H]2CC[C@]2(C)C(=O)CC[C@@H]12 [DHEA, dehydoepiandorosterone] | produced E2
C[C@]12CC[C@H](OS(=O)(=O)O)CC1=CC[C@@H]1[C@@H]2CC[C@]2(C)C(=O)CC[C@@H]12 [DHEA-S, DHEA-sulfate] | did not produce E2
